Measured values reported in PubChem BioAssay AID2060887 (Molecular Pharmacology Branch, DTP, NCI, 2025).

Test system: 782815-120-R-J1-PDC complex spheroid viability
Experiment: Anticancer human tumor 782815-120-R-J1-PDC patient-derived colon adenocarcinoma cell line growth inhibition [RAS]
Settings: for IC50: curve of first compound; for viability, T/C: stronger effect = lower value
Outline: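 Tumour cells grown as complex spheroids with HUVEC endothelial cells and mesenchymal stem cells, treated with RAS pathway inhibitor combinations. Each agent spans half-log steps from near clinical Cmax, or 10 microM where Cmax is unknown.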

[1] = second compound 0.000949 µM, first compound 0.0316 µM
[2] = second compound 0.000949 µM, first compound 0.1 µM
[3] = second compound 0.000949 µM, first compound 0.316 µM
[4] = second compound 0.000949 µM, first compound 1 µM
[5] = second compound 0.000949 µM, first compound 3.16 µM
[6] = second compound 0.000949 µM, first compound 10 µM
[7] = second compound 0.003 µM, first compound 0.0316 µM
[8] = second compound 0.003 µM, first compound 0.1 µM
[9] = second compound 0.003 µM, first compound 0.316 µM
[10] = second compound 0.003 µM, first compound 1 µM
[11] = second compound 0.003 µM, first compound 3.16 µM
[12] = second compound 0.003 µM, first compound 10 µM
[13] = second compound 0.00949 µM, first compound 0.0316 µM
[14] = second compound 0.00949 µM, first compound 0.1 µM
[15] = second compound 0.00949 µM, first compound 0.316 µM
[16] = second compound 0.00949 µM, first compound 1 µM
[17] = second compound 0.00949 µM, first compound 3.16 µM
[18] = second compound 0.00949 µM, first compound 10 µM
[19] = second compound 0.03 µM, first compound 0.0316 µM
[20] = second compound 0.03 µM, first compound 0.1 µM
[21] = second compound 0.03 µM, first compound 0.316 µM
[22] = second compound 0.03 µM, first compound 1 µM
[23] = second compound 0.03 µM, first compound 3.16 µM
[24] = second compound 0.03 µM, first compound 10 µM
[25] = second compound 0.0949 µM, first compound 0.0316 µM
[26] = second compound 0.0949 µM, first compound 0.1 µM
[27] = second compound 0.0949 µM, first compound 0.316 µM
[28] = second compound 0.0949 µM, first compound 1 µM
[29] = second compound 0.0949 µM, first compound 3.16 µM
[30] = second compound 0.0949 µM, first compound 10 µM
[31] = second compound 0.3 µM, first compound 0.0316 µM
[32] = second compound 0.3 µM, first compound 0.1 µM
[33] = second compound 0.3 µM, first compound 0.316 µM
[34] = second compound 0.3 µM, first compound 1 µM
[35] = second compound 0.3 µM, first compound 3.16 µM
[36] = second compound 0.3 µM, first compound 10 µM
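Also: spheroids exposed to compounds for 7 days before reading.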
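For viability, T/C in this document: 100% = DMSO vehicle control viability.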

`CC1(O)CCCC1n1c(=O)c(C(F)F)cc2cnc(NC3CCN(S(C)(=O)=O)CC3)nc21` (centres undefined) + CCn1c(-c2cccnc2C(C)OC)c2c3cc(ccc31)N1CCOC(CC(NC(=O)C(C(C)C)N(C)C(=O)C3(F)CCN(C(=O)C#CC(C)(C)N(C)C)CC3)C(=O)N3CCCC(N3)C(=O)OCC(C)(C)C2)C1 showed an IC50 (second compound 0.000949 µM) of 4.5 µM, an IC50 (second compound 0.003 µM) of 4.63 µM and an IC50 (second compound 0.00949 µM) of 4.04 µM. The IC50 (second compound 0.03 µM) was 4.5 µM, the IC50 (second compound 0.0949 µM) was 4.86 µM and the IC50 (second compound 0.3 µM) was 4.29 µM. The viability, T/C [1] was 61.7%, the viability, T/C [2] was 57.9% and the viability, T/C [3] was 65.8%. It also gave a viability, T/C [4] of 63%, a viability, T/C [5] of 61.5% and a viability, T/C [6] of 23.8%. For the same molecule, the viability, T/C [7] was 63.4%, the viability, T/C [8] was 64.5% and the viability, T/C [9] was 63.5%. It also gave a viability, T/C [10] of 54.9%, a viability, T/C [11] of 65.2% and a viability, T/C [12] of 25.2%. It also gave a viability, T/C [13] of 57.6%, a viability, T/C [14] of 55.1% and a viability, T/C [15] of 64.3%. The viability, T/C [16] was 70.3%, the viability, T/C [17] was 55% and the viability, T/C [18] was 24%. The viability, T/C [19] was 69.3%, the viability, T/C [20] was 53.7% and the viability, T/C [21] was 69.1%. It also gave a viability, T/C [22] of 61.9%, a viability, T/C [23] of 61.3% and a viability, T/C [24] of 24.8%. For the same molecule, the viability, T/C [25] was 67%, the viability, T/C [26] was 59.5% and the viability, T/C [27] was 70.3%. For the same molecule, the viability, T/C [28] was 65.2%, the viability, T/C [29] was 71.1% and the viability, T/C [30] was 22%. It also gave a viability, T/C [31] of 66.7%, a viability, T/C [32] of 50.9% and a viability, T/C [33] of 58%. For the same molecule, the viability, T/C [34] was 69.2%, the viability, T/C [35] was 61.5% and the viability, T/C [36] was 18.7%.

`CCC(CC)c1cc(NC2CCC(N)C2)n2nccc2n1` (centres undefined) + CCn1c(-c2cccnc2C(C)OC)c2c3cc(ccc31)N1CCOC(CC(NC(=O)C(C(C)C)N(C)C(=O)C3(F)CCN(C(=O)C#CC(C)(C)N(C)C)CC3)C(=O)N3CCCC(N3)C(=O)OCC(C)(C)C2)C1 showed an IC50 (second compound 0.000949 µM) of 2.93 µM, an IC50 (second compound 0.003 µM) of 3.08 µM and an IC50 (second compound 0.00949 µM) of 2.86 µM. The IC50 (second compound 0.03 µM) was 2.74 µM, the IC50 (second compound 0.0949 µM) was 2.85 µM and the IC50 (second compound 0.3 µM) was 2.36 µM. The viability, T/C [1] was 98.6%, the viability, T/C [2] was 90.5% and the viability, T/C [3] was 103%. The viability, T/C [4] was 100%, the viability, T/C [5] was 46.6% and the viability, T/C [6] was 2.15%. It also gave a viability, T/C [7] of 97.9%, a viability, T/C [8] of 92.7% and a viability, T/C [9] of 97.4%. For the same molecule, the viability, T/C [10] was 96.8%, the viability, T/C [11] was 48.9% and the viability, T/C [12] was 1.8%. For the same molecule, the viability, T/C [13] was 101%, the viability, T/C [14] was 102% and the viability, T/C [15] was 95.9%. For the same molecule, the viability, T/C [16] was 102%, the viability, T/C [17] was 45.1% and the viability, T/C [18] was 2.14%. It also gave a viability, T/C [19] of 94.2%, a viability, T/C [20] of 96.5% and a viability, T/C [21] of 103%. It also gave a viability, T/C [22] of 108%, a viability, T/C [23] of 42.8% and a viability, T/C [24] of 2.25%. The viability, T/C [25] was 97.6%, the viability, T/C [26] was 99% and the viability, T/C [27] was 97.4%. It also gave a viability, T/C [28] of 106%, a viability, T/C [29] of 45% and a viability, T/C [30] of 2.54%. The viability, T/C [31] was 91.9%, the viability, T/C [32] was 92.6% and the viability, T/C [33] was 94.3%. For the same molecule, the viability, T/C [34] was 101%, the viability, T/C [35] was 34.9% and the viability, T/C [36] was 3.21%.
